Data as given in patent US10093656B2, “Fused-ring or tricyclic aryl pyrimidine compound used as kinase inhibitor” (NANJING SANHOME PHARMACEUTICAL CO., LTD, priority 2015, dated 2018).

Experiments:
[1] = tested on: A431 cells EGFR WT; assay: A431 cell viability assay (Cell Titer-Glo, 6 days); type: cell-based, human; conditions: for IC50: Homo sapiens, A-431, 144 h, A431 cells, 6 days; for A431:NCI-H1975 (ratio): ratio of cell IC50 A431 to NCI-H1975
Description: (§1) RPMI1640, fetal bovine serum, penicillin/streptomycin solution were purchased from Life Technology (Madison, Wis.). Cell Titer-Glo luminescent cell viability reagents were purchased from Promega (Madison, Wis.). A431 cell line and NCI-H1975 cell line were purchased from European Collection of Cell Cultures (ECACC). Plate Reader Instrument: Envision (PerkinElmer).
(§2) 384-Well plates, 300 of A431 cells and NCI-H1975 cells were inoculated per well, a volume of which was 45 μL. And the plates were incubated overnight in a CO2 incubator at 37° C. The test compound was diluted 3-fold to obtain 10 dose concentrations, the final concentrations of which were from 10 μM to 0.508 nM, two wells. The middle plates were filled with 49 μL of medium per well. 1 μL of compound in the gradient dilution compound plates was transferred to the middle plates and mixed well. And then 5 μL liquid in the middle plates was taken to the cell plates. The cells were incubated in a CO2 incubator for 6 days. After 6 days, 25 μL of detection reagents was added. And then the mixture was incubated at room temperature for 10 minutes and the plates were read by Envision.
(§3) The reading is converted to the suppression rate by the following formula (%) (Max-Sample)/(Max-Min)*100%. IC50 Data was measured by Four-parameter curve fitting (Model 205 in XLFIT5, IDBS).

[2] = target: T1, EGFR wild type (Homo sapiens, UniProt P00533); assay: Wild-type EGFR enzyme HTRF inhibition assay; type: biochemical; conditions: 25 μM ATP, read-out: EGFR WT IC50
T1 construct: purchased Life technology (Madison, Wis.)
T1 sequence (P00533 25-1210): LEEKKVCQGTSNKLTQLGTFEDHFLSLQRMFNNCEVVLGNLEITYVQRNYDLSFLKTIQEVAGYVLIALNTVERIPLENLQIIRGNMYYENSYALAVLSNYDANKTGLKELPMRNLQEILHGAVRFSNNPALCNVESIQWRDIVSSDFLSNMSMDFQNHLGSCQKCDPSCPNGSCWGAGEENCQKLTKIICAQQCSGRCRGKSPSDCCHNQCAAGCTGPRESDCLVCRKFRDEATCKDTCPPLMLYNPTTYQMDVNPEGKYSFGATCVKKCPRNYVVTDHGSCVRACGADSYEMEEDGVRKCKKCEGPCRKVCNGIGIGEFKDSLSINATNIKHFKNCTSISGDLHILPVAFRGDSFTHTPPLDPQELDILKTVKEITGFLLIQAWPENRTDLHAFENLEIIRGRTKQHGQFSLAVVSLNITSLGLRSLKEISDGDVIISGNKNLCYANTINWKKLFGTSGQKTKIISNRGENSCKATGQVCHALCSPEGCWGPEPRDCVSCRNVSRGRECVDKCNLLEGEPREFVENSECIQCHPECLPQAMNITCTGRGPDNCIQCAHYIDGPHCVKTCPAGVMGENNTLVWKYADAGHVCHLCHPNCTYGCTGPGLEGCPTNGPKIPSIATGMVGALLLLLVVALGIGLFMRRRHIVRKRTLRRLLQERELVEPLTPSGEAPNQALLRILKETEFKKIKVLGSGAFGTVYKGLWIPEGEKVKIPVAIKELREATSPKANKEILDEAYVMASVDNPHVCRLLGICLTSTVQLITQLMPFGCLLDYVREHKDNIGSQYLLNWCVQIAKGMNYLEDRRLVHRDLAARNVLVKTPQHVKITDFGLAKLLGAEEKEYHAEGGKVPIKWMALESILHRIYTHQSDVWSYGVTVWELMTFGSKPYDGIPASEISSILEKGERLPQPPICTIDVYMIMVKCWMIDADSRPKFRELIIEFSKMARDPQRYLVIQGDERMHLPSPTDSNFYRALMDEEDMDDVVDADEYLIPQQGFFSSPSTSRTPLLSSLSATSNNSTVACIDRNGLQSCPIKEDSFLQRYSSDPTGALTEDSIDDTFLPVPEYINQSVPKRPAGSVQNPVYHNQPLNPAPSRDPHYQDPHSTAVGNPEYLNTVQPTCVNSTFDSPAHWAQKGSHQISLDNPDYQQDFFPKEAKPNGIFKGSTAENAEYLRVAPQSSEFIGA
Description: (§4) Enzyme: EGFR wild type, EGFR T790M/L858R, EGFR T790M and INSR were purchased from Life technology (Madison, Wis.), EGFR d746-750/T790M was purchased from Carna Biosciences (Japan).
(§5) HTRF Kit was purchased from Cis-Bio International which contained the Eu-labeled TK1 antibody, XL665 and biotin-labeled TK1 polypeptide substrates.
(§6) Detecting instrument: Envision (PerkinElmer).
(§7) The test compound was diluted 3-fold to obtain 10 doses of which the final concentration was from 300 nM to 0.015 nM.
Wild-Type EGFR Enzyme Reaction Mixture System:
0.05 nM Wild-type EGFR, 1 μM biotin-TK1 peptide, 25 μM ATP enzyme buffer, a total of which was 10 μL. The reaction plate was white Proxiplate 384-Plus plate (PerkinElmer) and the mixture was reacted at 23° C. for 60 minutes.
(§8) Reaction Detection: 10 μL of detection reagent containing Antibody 2 nM and XL665 62.5 nM was added, and the reagent was incubated at 23° C. for 60 minutes. The plates were read by Envision.
(§9) The reading is converted to the suppression rate (%) by the following formula […]/(Max-Min)*100%. IC50 Data was measured by four-parameter curve fitting (Model 205 in XLFITS, IDBS).

[3] = target: T2, EGFR T790M/L858R (Homo sapiens, UniProt P00533, L858R/T790M); assay: EGFR T790M/L858R enzyme HTRF inhibition assay; type: biochemical; conditions: 20 μM ATP, read-out: EGFR L858R/T79M IC50
T2 construct: purchased Life technology (Madison, Wis.)
T2 sequence (P00533 25-1210 T790M/L858R): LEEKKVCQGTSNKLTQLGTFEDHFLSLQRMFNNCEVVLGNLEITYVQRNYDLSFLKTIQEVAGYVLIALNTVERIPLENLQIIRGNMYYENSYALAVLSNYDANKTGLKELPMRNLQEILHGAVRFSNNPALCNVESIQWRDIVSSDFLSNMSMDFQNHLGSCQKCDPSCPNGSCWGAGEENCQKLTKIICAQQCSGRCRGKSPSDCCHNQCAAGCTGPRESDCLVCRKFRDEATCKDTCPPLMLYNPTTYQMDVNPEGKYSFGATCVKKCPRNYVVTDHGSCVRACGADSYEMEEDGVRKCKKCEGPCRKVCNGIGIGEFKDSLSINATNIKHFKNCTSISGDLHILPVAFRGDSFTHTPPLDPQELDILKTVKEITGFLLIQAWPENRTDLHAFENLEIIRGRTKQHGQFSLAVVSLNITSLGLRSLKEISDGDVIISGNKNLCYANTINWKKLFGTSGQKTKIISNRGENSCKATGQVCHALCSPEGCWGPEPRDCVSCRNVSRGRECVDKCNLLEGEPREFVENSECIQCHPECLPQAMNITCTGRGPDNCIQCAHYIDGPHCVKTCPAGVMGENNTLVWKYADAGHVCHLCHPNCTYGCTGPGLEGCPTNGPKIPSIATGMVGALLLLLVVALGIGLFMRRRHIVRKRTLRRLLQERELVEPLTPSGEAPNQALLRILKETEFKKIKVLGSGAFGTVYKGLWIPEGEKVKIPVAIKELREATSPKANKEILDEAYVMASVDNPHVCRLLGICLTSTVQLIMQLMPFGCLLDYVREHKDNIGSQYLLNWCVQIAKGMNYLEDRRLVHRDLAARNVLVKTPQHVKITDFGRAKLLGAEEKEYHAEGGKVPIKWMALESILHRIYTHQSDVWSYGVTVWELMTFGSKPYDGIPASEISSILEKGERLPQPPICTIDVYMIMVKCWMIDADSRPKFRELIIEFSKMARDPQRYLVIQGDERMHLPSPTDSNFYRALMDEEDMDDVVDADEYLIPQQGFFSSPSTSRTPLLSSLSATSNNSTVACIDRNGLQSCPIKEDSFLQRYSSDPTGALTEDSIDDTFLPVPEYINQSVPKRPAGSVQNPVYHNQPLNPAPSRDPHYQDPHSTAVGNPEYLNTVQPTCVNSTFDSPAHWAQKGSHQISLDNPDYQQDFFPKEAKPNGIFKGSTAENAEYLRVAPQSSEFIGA
Description: as §4, §5, §6, §7
EGFR T790M/L858R Enzyme Reaction Mixture System:
0.04 nM EGFR T790M/L858R, 1 μM biotin-TK1 peptide, 20 μM ATP enzyme buffer, a total of which was 10 μL. The reaction plate was white Proxiplate 384-Plus plate (PerkinElmer) and the mixture was reacted at 23° C. for 60 minutes.
as §8, §9

[4] = target: T3, EGFR d746-750/T790M (Homo sapiens, UniProt P00533, DEL746-750/T790M); assay: EGFR d746-750/T790M enzyme HTRF inhibition assay; type: biochemical; conditions: 40 μM ATP
T3 construct: purchased Carna Biosciences (Japan)
T3 sequence (P00533 with tags, fused parts or gaps DEL746-750/T790M limits assumed): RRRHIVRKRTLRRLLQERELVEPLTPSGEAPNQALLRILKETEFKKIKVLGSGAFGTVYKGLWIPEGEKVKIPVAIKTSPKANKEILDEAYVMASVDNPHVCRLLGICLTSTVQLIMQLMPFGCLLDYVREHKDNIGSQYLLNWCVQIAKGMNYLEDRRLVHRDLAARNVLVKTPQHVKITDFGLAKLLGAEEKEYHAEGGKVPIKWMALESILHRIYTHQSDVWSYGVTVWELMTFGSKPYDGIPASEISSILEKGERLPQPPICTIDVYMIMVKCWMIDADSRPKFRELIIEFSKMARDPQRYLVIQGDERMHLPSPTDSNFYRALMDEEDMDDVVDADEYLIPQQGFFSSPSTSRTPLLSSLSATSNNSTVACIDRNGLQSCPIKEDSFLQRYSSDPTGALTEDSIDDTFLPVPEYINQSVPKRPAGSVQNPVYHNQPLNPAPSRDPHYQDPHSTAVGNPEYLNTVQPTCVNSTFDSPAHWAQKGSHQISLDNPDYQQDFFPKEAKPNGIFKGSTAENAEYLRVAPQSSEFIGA
Description: as §4, §5, §6, §7
EGFR d746-750/T790M Enzyme Reaction Mixture System:
0.025 nM EGFR d746-750/T790M, 1 μM biotin-TK1 peptide, 40 μM ATP enzyme buffer, a total of which was 10 μL. The reaction plate was white Proxiplate 384-Plus plate (PerkinElmer) and the mixture was reacted at 23° C. for 60 minutes.
as §8, §9

[5] = tested on: NCI-H1975 cells EGFR L858R/T790M; assay: NCI-H1975 cell viability assay (Cell Titer-Glo, 6 days); type: cell-based; conditions: Homo sapiens, 144 h
Description: as §1, §2, §3

| SMILES | IC50 [1] [nM] | A431:NCI-H1975 (ratio) [1] | IC50 [2] [nM] | IC50 [3] [nM] | IC50 [4] [nM] | IC50 [5] [nM] |
| --- | --- | --- | --- | --- | --- | --- |
| C=CC(=O)Nc1cc(Nc2nccc(-c3cn4c5c(cccc35)OCC(C)(C)C4)n2)c(OC)cc1N(C)CCN(C)C [Embodiment 41, N-(5-((4-(3,3-Dimethyl-3,4-dihydro-2H-[1,4]oxazepino[2,3,4-hi]indol-7-yl)pyrimidin-2-yl)amino)-2-((2-(dimethylamino)ethyl)(methyl)amino)-4-methoxyphenyl)acrylamide] | 1720 | 8.5 | 4.9 | 1.5 | 2.6 | 201 |
| C=CC(=O)Nc1cc(Nc2nccc(-c3c4n(c5ccccc35)CCC4)n2)c(OC)cc1N1CCN(C)CC1 [Embodiment 4, 2-(2-Methoxy-4-(N-methyl)piperazine-5-acrylamidoanilino)-4-(3-(1,2,3-dihydropyrrolo[1,2-a]indol))pyrimidine] | 4620 | 10.6 | 60 | 3.25 | 2.7 | 434 |
| C=CC(=O)Nc1cc(Nc2nccc(-c3c4n(c5ccccc35)CCC4)n2)c(OC)cc1CN1CCOCC1 [Embodiment 9, N-(5-((4-(2,3-Dihydro-1H-pyrrolo[1,2-a]indol-9-yl)pyrimidin-2-yl)amino)-4-methoxy-2-(morpholinomethyl)phenyl)acrylamide] | 1440 | 13.0 | 6.28 | 0.75 | 0.51 | 111 |
| C=CC(=O)Nc1cc(Nc2nccc(-c3c4n(c5ccccc35)CCOC4)n2)c(OCC)cc1N(C)CCN(C)C [Embodiment 28, N-(5-((4-(3,4-Dihydro-1H-[1,4]oxazino[4,3-a]indol-10-yl)pyrimidin-2-yl)amino)-2-((2-(dimethylamino)ethyl)(methyl)amino)-4-ethoxyphenyl)acrylamide] | 517 | 47 | 1.5 | 0.2 | 0.2 | 11 |
| C=CC(=O)Nc1cc(Nc2nccc(-c3c4n(c5ccc(F)cc35)CCC4)n2)c(OC)cc1N(C)CCN(C)C [Embodiment 13, N-(2-((2-(Dimethylamino)ethyl)(methyl)amino)-5-((4-(7-fluoro-2,3-dihydro-1H-pyrrolo[1,2-a]indol-9-yl)pyrimidin-2-yl)amino)-4-methoxyphenyl) acrylamide] | 545 | 101.0 | 0.65 | 0.24 | 0.18 | 5.4 |
| C=CC(=O)Nc1cc(Nc2nccc(-c3c4n(c5ccccc35)CCCC4)n2)c(OC)cc1N(C)CCN(C)C [Embodiment 15, N-(2-((2-(Dimethylamino)ethyl)(methyl)amino)-4-methoxy-5-((4-(6,7,8,9-tetrahydropyrido[1,2-a]indol-10-yl)pyrimidin-2-yl)amino)phenyl)acrylamide] | 230 | 15.3 | 1.03 | 0.36 | 0.37 | 15 |
| C=CC(=O)Nc1cc(Nc2ncc(F)c(-c3c4n(c5ncccc35)CCOC4)n2)c(OC)cc1N(C)CCN(C)C [Embodiment 39, N-(5-((4-(8,9-Dihydro-6H-pyrido[2,3]pyrrolo[4,5-α][1,4]oxazin-5-yl)-5-fluoropyrimidin-2-yl)amino)-2-((2-(dimethylamino)ethyl)(methyl)amino)-4-methoxyphenyl)acrylamide] | 1570 | 5.5 | 5.3 | 0.5 | 0.6 | 288 |
| C=CC(=O)Nc1cc(Nc2nccc(-c3c4n(c5ccccc35)CCC4)n2)c(OC)cc1N(C)CCCN(C)C [Embodiment 7, N-(5-((4-(2,3-Dihydro-1H-pyrrolo[1,2-a]indol-9-yl)pyrimidin-2-yl)amino)-2-((3-(dimethylamino)propyl)(methyl)amino)-4-methoxyphenyl)acrylamide] | 3720 | 7.5 | 33 | 2.19 | 2.59 | 496 |
| C=CC(=O)Nc1cc(Nc2nccc(-c3c4n(c5ccccc35)CCOC4)n2)c(OC)cc1N(C)CCNC(C)C [Embodiment 23, N-(5-((4-(3,4-Dihydro-1H-[1,4]oxazino[4,3-a]indol-10-yl)pyrimidin-2-yl)amino)-2-((2-(isopropylamino)ethyl)(methyl)amino)-4-methoxyphenyl)acrylamide] | 1570 | 25 | – | – | – | 63 |
| C=CC(=O)Nc1cc(Nc2nccc(-c3c4n(c5ccccc35)CCC4)n2)c(OC)cc1N1CCC(N(C)C)C1 (stereo not drawn) [Embodiment 6, N-(5-((4-(2,3-Dihydro-1H-pyrrolo[1,2-a]indol-9-yl)pyrimidin-2-yl)amino)-2-(3-(dimethylamino)pyrrolidin-1-yl)-4-methoxyphenyl)acrylamide] | > 10000 | >2.1 | 20.3 | 3.07 | 3.29 | 4330 |
| C=CC(=O)Nc1cc(Nc2ncc(F)c(-c3c4n(c5ccccc35)CCOC4)n2)c(OC)cc1N(C)CCNC [Embodiment 31, N-(5-((4-(3,4-Dihydro-1H-[1,4]oxazino[4,3-a]indol-10-yl)-5-fluoropyrimidin-2-yl)amino)-4-methoxy-2-(methyl(2-(methylamino)ethyl)amino)phenyl)acrylamide] | 1290 | 13.4 | 2 | 0.2 | 0.3 | 96 |
| C=CC(=O)Nc1cc(Nc2ncc(F)c(-c3c4n(c5c(OC)cccc35)CCOC4)n2)c(OC)cc1N(C)CCN(C)C [Embodiment 35, N-(2-((2-(Dimethylamino)ethyl)(methyl)amino)-5-((5-fluoro-4-(6-methoxy-3,4-dihydro-1H-[1,4]oxazino[4,3-a]indol-10-yl)pyrimidin-2-yl)amino)-4-methoxyphenyl)acrylamide] | 971 | 9.1 | 1.5 | 1.2 | 0.6 | 107 |
| C=CC(=O)Nc1cc(Nc2nccc(-c3c4n(c5ccccc35)CCOC4)n2)c(OC)cc1N(CC)CCNCC [Embodiment 21, N-(5-((4-(3,4-Dihydro-1H-[1,4]oxazino[4,3-a]indol-10-yl)pyrimidin-2-yl)amino)-2-(ethyl(2-(ethylamino)ethyl)amino)-4-methoxyphenyl)acrylamide] | 1440 | 29 | – | – | – | 50 |
| C=CC(=O)Nc1cc(Nc2nccc(-c3c4n(c5ccccc35)CCOC4)n2)c(OC)cc1N(C)CCN1CCC1 [Embodiment 26, N-(2-((2-(Azetidin-1-yl)ethyl)(methyl)amino)-5-((4-(3,4-dihydro-1H-[1,4]oxazino[4,3-a]indol-10-yl)pyrimidin-2-yl)amino)-4-methoxyphenyl)acrylamide] | 2210 | 22 | – | – | – | 102 |
| C=CC(=O)Nc1cc(Nc2nccc(-c3c4n(c5ccccc35)CCOC4)n2)c(OC)cc1N(CC)CCN(C)CC [Embodiment 22, N-(5-((4-(3,4-Dihydro-1H-[1,4]oxazino[4,3-a]indol-10-yl)pyrimidin-2-yl)amino)-2-(ethyl(2-(ethyl(methyl)amino)ethyl)amino)-4-methoxyphenyl)acrylamide] | 1330 | 26 | – | – | – | 50.4 |
